Read-outs that look alike come from different tables or passages of the source.
System: NF-κB
Experiment: NF-κB assay: THP1-NF-κB-LUC cells, LPS-stimulated secreted luciferase
Assay type: cell-based
Conditions: THP1-NF-κB-LUC cells, read-out: IC50 (NF-κB assay)
Description: FIG. 1 contains line plots showing NF-κB activity of exemplified compounds. 25k THP1-NF-κB-LUC cells were dispensed into 384 well plate (per well). Cells were treated with compounds (2 μM and 0.2 μM) for 2 hours before addition of LPS (10 ng/mL) for 18 hours. Secreted luciferase activity were measured using quant-luc reagents (1 bag of luc reagent dilute to 40 mL, use 10 μL per well). Data were normalized to vehicle control and graphed. Structures of selected exemplified compounds are shown.
FIG. 2 contains heat charts showing NF-κB activity of exemplified compounds as a function of concentration. 25k THP1-NF-κB-LUC cells were dispensed into 384 well plate (per well). Cells were treated with compounds (with serial dilution) for 2 hours before addition of LPS (10 ng/ml) for 18 hours. Secreted luciferase activity were measured using quant-luc reagents (1 bag of luc reagent dilute to 40 mL, use 10 μL per well). Structures of selected exemplified compounds are shown.
25k THP1-NF-κB-LUC cells were dispensed into 384 well plate (per well). Cells were treated with compounds with various concentrations for 2 hours before addition of LPS (10 ng/mL) for 18 hours. Secreted luciferase activity were measured using quant-luc reagents (1 bag of luc reagent dilute to 40 mL, use 10 μL per well). Data were normalized to vehicle control and graphed. Compound IC50 towards inhibiting NF-κB were determined through Prism. Similarly, 10k human PBMCs cells were cultured in 384 well plate (per well). Cells were treated with compounds with various concentrations for 2 hours before addition of LPS (10 ng/ml) for 18 hours, and supernatants were collected and assayed for TNF ELISA. Compound IC50 towards inhibiting TNF release were determined through Prism. • Activity: “+”>10 μM, “++”>1 μM and <10 μM, “+++”>0.1 μM and <1 μM, “++++”<0.1 μM.

[1] = compounds 2 hours before LPS (10 ng/mL) for 18 hours, secreted luciferase

For `CCc1cccc(NS(=O)(=O)c2cc3c(cc2C)N(C(C)=O)CCO3)c1` [BC181373], the IC50 [1] was > 10 µM.
`CCS(=O)(=O)c1oc(-c2ccc(F)cc2)nc1S(=O)(=O)c1ccc(F)cc1` [BC18532] was tested, and the IC50 (LPS-stimulated) was < 0.1 µM.
Work on `CCCCS(=O)(=O)c1oc(-c2ccc(F)cc2)nc1S(=O)(=O)c1ccc(F)cc1` [BC18510] yielded an IC50 (LPS-stimulated) of 0.1 to 1 µM.
For `O=C(NCc1ccccn1)c1ccc2nc(-c3ccc(F)cc3)c(-c3ccc(F)cc3)nc2c1` [BC18447], the IC50 (LPS-stimulated) was < 0.1 µM.
With `CCc1ccc2c(c1)c(=O)c(S(=O)(=O)c1ccc(C)cc1)cn2C` [BC18326] the IC50 [1] was > 10 µM.
`O=C(NCCc1ccccc1)c1ccc2nc(-c3ccc(F)cc3)c(-c3ccc(F)cc3)nc2c1` [BC18435] showed an IC50 (LPS-stimulated) of 0.1 to 1 µM.
For `Cc1cccc(-c2nc3ccc(C(=O)NCc4ccccc4)cc3nc2-c2cccc(C)c2)c1` [BC18446], the IC50 (LPS-stimulated) was > 10 µM.
`CCCCSc1oc(-c2ccccc2)nc1S(=O)(=O)c1ccc(Cl)cc1` [BC18557] gave an IC50 (LPS-stimulated) of 1 to 10 µM.
For `Cc1ccc(S(=O)(=O)c2nc(-c3ccccc3)oc2S(=O)(=O)c2ccc(C)cc2)cc1` [BC18500], the IC50 (LPS-stimulated) was < 0.1 µM.
For `COc1ccc(S(=O)(=O)c2cn(CC(=O)Nc3ccc(C)cc3)c3ccc(Cl)cc3c2=O)cc1` [BC18329], the IC50 [1] was > 10 µM.
With `CC(=O)N1CCOc2cc(S(=O)(=O)Nc3ccc(F)cc3F)c(C)cc21` [BC181372] the IC50 [1] was 1 to 10 µM.
For `CCC(C)S(=O)(=O)c1oc(-c2ccc(F)cc2)nc1S(=O)(=O)c1ccc(F)cc1` (stereo not drawn) [BC18576], the IC50 (LPS-stimulated) was < 0.1 µM.
For `NC(=O)C1CCN(C(=O)c2ccc3nc(-c4ccc(F)cc4)c(-c4ccc(F)cc4)nc3c2)CC1` [BC18471], the IC50 (LPS-stimulated) was < 0.1 µM.
Work on `CC(=O)N1CCOc2cc(S(=O)(=O)Nc3cccc(Cl)c3)c(C)cc21` [BC181350] yielded an IC50 [1] of 1 to 10 µM.
With `N#Cc1ccc(S(=O)(=O)c2c[nH]c3ccc(F)cc3c2=O)cc1` [BC18306] the IC50 [1] was > 10 µM.
`CCC(C)Sc1oc(-c2ccc(F)cc2)nc1S(=O)(=O)c1ccccc1` (stereo not drawn) [BC18570] was tested, and the IC50 (LPS-stimulated) was 1 to 10 µM.
With `Cc1cc2c(cc1S(=O)(=O)Nc1ccc(F)c(Cl)c1)OCC(=O)N2` [BC181331] the IC50 [1] was < 0.1 µM.
With `CCOC(=O)N1CCN(C(=O)c2ccc3nc(-c4ccccc4)c(-c4ccccc4)nc3c2)CC1` [BC18487] the IC50 (LPS-stimulated) was < 0.1 µM.
In the case of `CCSc1oc(-c2ccc(C)cc2)nc1S(=O)(=O)c1ccc(Cl)cc1` [BC18547], the IC50 (LPS-stimulated) is reported as > 10 µM.
In the case of `O=C(c1ccc2nc(-c3ccccc3)c(-c3ccccc3)nc2c1)N1CCN(C(=O)c2ccco2)CC1` [BC18462], the IC50 (LPS-stimulated) is reported as < 0.1 µM.
`Cc1cc2c(cc1S(=O)(=O)Nc1ccc(CC(F)(F)F)cc1)OCC(=O)N2` [BC181315] was tested, and the IC50 [1] was < 0.1 µM.
Compound `CC(C)Sc1oc(-c2ccc(F)cc2)nc1S(=O)(=O)c1ccc(Br)cc1` [BC18585] has an IC50 (LPS-stimulated) of 1 to 10 µM.
In the case of `Cc1cccc(-c2nc3ccc(C(=O)N4CCN(c5ncccn5)CC4)cc3nc2-c2cccc(C)c2)c1` [BC18436], the IC50 (LPS-stimulated) is reported as 1 to 10 µM.
`COc1ccc2[nH]cc(S(=O)(=O)c3cc(Cl)cc(Cl)c3)c(=O)c2c1` [BC18308] was tested, and the IC50 [1] was > 10 µM.
For `COc1cc2c(=O)c(S(=O)(=O)c3ccc(Cl)cc3)cn(Cc3ccccc3F)c2cc1OC` [BC18333], the IC50 [1] was > 10 µM.
In the case of `CSc1oc(-c2ccccc2)nc1S(=O)(=O)c1ccc(F)cc1` [BC18545], the IC50 (LPS-stimulated) is reported as 1 to 10 µM.
For `COc1ccc(C)cc1NS(=O)(=O)c1cc2c(cc1C)NC(=O)CO2` [BC181326], the IC50 [1] was > 10 µM.
`Cc1cccc(-c2nc3ccc(C(=O)NCCN4CCCC4)cc3nc2-c2cccc(C)c2)c1` [BC18430] gave an IC50 (LPS-stimulated) of 1 to 10 µM.
`CCCCS(=O)(=O)c1oc(-c2ccc(F)cc2)nc1S(=O)(=O)c1ccc(F)cc1` [BC18565] was tested, and the IC50 (LPS-stimulated) was < 0.1 µM.
For `NC(=O)CSc1oc(-c2ccc(F)cc2)nc1S(=O)(=O)c1ccc(F)cc1` [BC18539], the IC50 (LPS-stimulated) was > 10 µM.
With `Cc1ccc(-c2nc3ccc(C(=O)NCc4ccccc4)cc3nc2-c2ccc(C)cc2)cc1` [BC18444] the IC50 (LPS-stimulated) was > 10 µM.
In the case of `CCCN(Cc1ccc(C)cc1)C(=O)c1ccc2nc(-c3ccccc3)c(-c3ccccc3)nc2c1` [BC18434], the IC50 (LPS-stimulated) is reported as 0.1 to 1 µM.
In the case of `CCc1ccccc1NS(=O)(=O)c1cc2c(cc1C)NC(=O)CO2` [BC181356], the IC50 [1] is reported as > 10 µM.
`Cc1ccc(-c2nc3ccc(C(=O)NCc4ccc(F)cc4)cc3nc2-c2ccc(C)cc2)cc1` [BC18466] was tested, and the IC50 (LPS-stimulated) was > 10 µM.
`Cc1ccc(NS(=O)(=O)c2cc3c(cc2C)NC(=O)CO3)c(C)c1` [BC181346] was tested, and the IC50 [1] was > 10 µM.
`COc1cccc(NS(=O)(=O)c2cc3c(cc2C)N(C)CCO3)c1` [BC181308] was tested, and the IC50 [1] was > 10 µM.
In the case of `CCNS(=O)(=O)c1cc2c(cc1C)NC(=O)CO2` [BC181332], the IC50 [1] is reported as > 10 µM.
In the case of `Cc1ccc(CNC(=O)c2ccc3nc(-c4ccccc4)c(-c4ccccc4)nc3c2)cc1` [BC18486], the IC50 (LPS-stimulated) is reported as > 10 µM.
For `Cc1cc2c(cc1S(=O)(=O)Nc1c(C)cccc1C)OCC(=O)N2` [BC181323], the IC50 [1] was > 10 µM.
